{
  "source": "patent US20120015907A1",
  "about": "“Furopyridine compounds and uses thereof” (NOVARTIS AG, priority 2010, published 2012)",
  "data": [
    {"target": "T1, HCV polymerase (Hepatitis C virus genotype 1b, UniProt Q9WMX2)", "T1 construct": "(His)6 (C)", "test": "biochemical", "settings": "NS5B polymerase IC50 μM, polymerase assay of Biological Example 1", "excerpt": "(§1) A number of assays have been published to assess these activities. A general method that assesses the gross increase of HCV virus in culture was disclosed in U.S. Pat. No. 5,738,985 to Miles et al. In vitro assays have been reported in Ferrari et al. Jnl. of Vir., 73:1649-1654, 1999; Ishii et al., Hepatology, 29:1227-1235, 1999; Lohmann et al., Jnl of Bio. Chem., 274:10807-10815, 1999; and Yamashita et al., Jnl. of Bio. Chem., 273:15479-15486, 1998.\n(§2) WO 97/12033, filed on Sep. 27, 1996, by Emory University, listing C. Hagedorn and A. Reinoldus as inventors, which claims priority to U.S. Provisional Patent Application Ser. No. 60/004,383, filed on September 1995, described an HCV polymerase assay that can be used to evaluate the activity of the of the compounds described herein. Another HCV polymerase assay has been reported by Bartholomeusz, et al., Hepatitis C Virus (HCV) RNA polymerase assay using cloned HCV non-structural proteins; Antiviral Therapy 1996:1(Supp 4) 18-24.", "units": {"IC50": "µM"}, "values": [
      {"smiles": "CNC(=O)c1c(-c2ccc(C)cc2)oc2nc(N(CCCP(C)(=O)O)S(C)(=O)=O)c(C3CC3)cc12", "note": "[Example 23.99998, 3-(N-(5-cyclopropyl-3-(methylcarbamoyl)-2-p-tolylfuro[2,3-b]pyridin-6-yl)methylsulfonamido)propyl (methyl)phosphinic acid]", "IC50": 0.005}
    ]},
    {"target": "T1, HCV polymerase", "test": "biochemical", "settings": "polymerase assay of Biological Example 1; read-out: NS5B polymerase IC50", "excerpt": "as §1, §2", "units": {"IC50": "µM"}, "values": [
      {"smiles": "CCc1cc2c(C(=O)NC)c(-c3ccc(F)cc3)oc2nc1N(CCCOc1ccccc1C#N)S(C)(=O)=O", "note": "[Example 21.5, 6-(N-(3-(2-cyanophenoxy)propyl)methylsulfonamido)-5-ethyl-2-(4-fluorophenyl)-N-methylfuro[2,3-b]pyridine-3-carboxamide]", "IC50": 0.191},
      {"smiles": "CNC(=O)c1c(-c2ccc(C)cc2)oc2nc(N(CCOCCC3(C(=O)O)CCOCC3)S(C)(=O)=O)c(C3CC3)cc12", "note": "[Example 29.99995, 4-(2-(2-(N-(5-cyclopropyl-3-(methylcarbamoyl)-2-p-tolylfuro[2,3-b]pyridin-6-yl)methylsulfonamido)ethoxy)ethyl)tetrahydro-2H-pyran-4-carboxylic acid]", "IC50": 0.032},
      {"smiles": "CNC(=O)c1c(-c2ccc(F)cc2)oc2nc(N(C)S(C)(=O)=O)c(CCCC(O)CO)cc12", "note": "(stereo not shown) [Example 4.92, 5-(4,5-dihydroxypentyl)-2-(4-fluorophenyl)-N-methyl-6-(N-methylmethylsulfonamido)furo[2,3-b]pyridine-3-carboxamide]", "IC50": 0.223},
      {"smiles": "CNC(=O)c1c(-c2ccc(C)cc2)oc2nc(N(CCCC[C@H](COC)C(=O)N[C@H](CO)Cc3ccccc3)S(C)(=O)=O)c(C3CC3)cc12", "note": "[Example 47.6, 5-Cyclopropyl-6-(N—((R)-6-((S)-1-hydroxy-3-phenylpropan-2-ylamino)-5-(methoxymethyl)-6-oxohexyl)methylsulfonamido)-N-methyl-2-p-tolylfuro[2,3-b]pyridine-3-carboxamide]", "IC50": 0.005},
      {"smiles": "CNC(=O)c1c(-c2ccc(C)cc2)oc2nc(N(CCCCC(C(=O)O)S(C)(=O)=O)S(C)(=O)=O)c(C3CC3)cc12", "note": "(stereo not shown) [Example 46, 6-(N-(5-cyclopropyl-3-(methylcarbamoyl)-2-(p-tolyl)furo[2,3-b]pyridin-6-yl)methylsulfonamido)-2-(methylsulfonyl)hexanoic acid]", "IC50": 0.003},
      {"smiles": "CNC(=O)c1c(-c2ccc(F)cc2)oc2nc(N(C)S(C)(=O)=O)c(C)cc12", "note": "[Example 2.92, 2-(4-fluorophenyl)-N,5-dimethyl-6-(N-methylmethylsulfonamido)furo[2,3-b]pyridine-3-carboxamide]", "IC50": 0.256},
      {"smiles": "CNC(=O)c1c(-c2ccc(C)cc2)oc2nc(N(CCCCCBr)S(C)(=O)=O)c(C3CC3)cc12", "note": "[Example 29.998, 6-(N-(5-bromopentyl)methylsulfonamido)-5-cyclopropyl-N-methyl-2-p-tolylfuro[2,3-b]pyridine-3-carboxamide]", "IC50": 0.003},
      {"smiles": "CNC(=O)c1c(-c2ccccc2)oc2nc(N(C)S(C)(=O)=O)c(C3CC3)cc12", "note": "[Example 2.8, 5-cyclopropyl-N-methyl-6-(N-methylmethylsulfonamido)-2-phenylfuro[2,3-b]pyridine-3-carboxamide]", "IC50": 0.03},
      {"smiles": "CNC(=O)c1c(-c2ccc(C)cc2)oc2nc(N(C)S(C)(=O)=O)c(CCCO)cc12", "note": "[Example 9.2, 5-(3-hydroxypropyl)-N-methyl-6-(N-methylmethylsulfonamido)-2-p-tolylfuro[2,3-b]pyridine-3-carboxamide]", "IC50": 0.082},
      {"smiles": "CNC(=O)c1c(-c2ccc(C)cc2)oc2nc(N(CCCC3(C(=O)O)COC3)S(C)(=O)=O)c(C3CC3)cc12", "note": "[Example 29.96, 3-(3-(N-(5-cyclopropyl-3-(methylcarbamoyl)-2-p-tolylfuro[2,3-b]pyridin-6-yl)methylsulfonamido)propyl) oxetane-3-carboxylic acid]", "IC50": 0.005},
      {"smiles": "CNC(=O)c1c(-c2ccc(C)cc2)oc2nc(N(CCCCCCCC(=O)O)S(C)(=O)=O)c(C3CC3)cc12", "note": "[Example 29.991, 8-(N-(5-cyclopropyl-3-(methylcarbamoyl)-2-p-tolylfuro[2,3-b]pyridin-6-yl)methylsulfonamido) octanoic acid]", "IC50": 0.004},
      {"smiles": "CNC(=O)c1c(-c2ccc(F)cc2)oc2nc3c(cc12)C(C)C(O)CCCCN3S(C)(=O)=O", "note": "(stereo not shown) [Example 38, 2-(4-Fluoro-phenyl)-6-hydroxy-11-methanesulfonyl-5-methyl-6,7,8,9,10,11-hexahydro-5H-1-oxa-11,12-diaza-cyclonona[f]indene-3-carboxylic acid methylamide]", "IC50": 0.509},
      {"smiles": "CCc1cc2c(C(=O)NC)c(-c3ccc(F)cc3)oc2nc1N(CCOc1ccc2cccnc2c1)S(C)(=O)=O", "note": "[Example 22.8, 5-ethyl-2-(4-fluorophenyl)-N-methyl-6-(N-(2-(quinolin-7-yloxy)ethyl)methylsulfonamido)furo[2,3-b]pyridine-3-carboxamide]", "IC50": 0.045},
      {"smiles": "CNC(=O)c1c(-c2ccc(F)cc2)oc2nc(N(C)S(C)(=O)=O)c(CCC#N)cc12", "note": "[Example 14, 5-(2-cyanoethyl)-2-(4-fluorophenyl)-N-methyl-6-(N-methylmethylsulfonamido)furo[2,3-b]pyridine-3-carboxamide]", "IC50": 0.147},
      {"smiles": "CNC(=O)c1c(-c2ccc(F)cc2)oc2nc(N(CCO)S(C)(=O)=O)c(I)cc12", "note": "[Example 18.1, 2-(4-fluorophenyl)-6-(N-(2-hydroxyethyl)methylsulfonamido)-5-iodo-N-methylfuro[2,3-b]pyridine-3-carboxamide]", "IC50": 0.451},
      {"smiles": "CCc1cc2c(C(=O)NC)c(-c3ccc(F)cc3)oc2nc1N(CCCC(=O)N(C)C)S(C)(=O)=O", "note": "[Example 22.96, 6-(N-(4-(dimethylamino)-4-oxobutyl)methylsulfonamido)-5-ethyl-2-(4-fluorophenyl)-N-methylfuro[2,3-b]pyridine-3-carboxamide]", "IC50": 0.131},
      {"smiles": "CNC(=O)c1c(-c2ccc(C(F)(F)F)cc2)oc2nc(N(C)S(C)(=O)=O)c(I)cc12", "note": "[Example 2.91, 5-iodo-N-methyl-6-(N-methylmethylsulfonamide)-2-(4-(trifluoromethyl)phenyl)furo[2,3-b]pyridine-3-carboxamide]", "IC50": 0.802},
      {"smiles": "CNC(=O)c1c(-c2ccc(C)cc2)oc2nc(N(CCCCN)S(C)(=O)=O)c(C3CC3)cc12", "note": "[Example 23.999993, 6-(N-(4-aminobutyl)methylsulfonamido)-5-cyclopropyl-N-methyl-2-p-tolylfuro[2,3-b]pyridine-3-carboxamide]", "IC50": 0.016},
      {"smiles": "CNC(=O)c1c(-c2ccc(C)cc2)oc2nc(N(CCC[C@H](C)C(=O)OCOP(=O)(O)O)S(C)(=O)=O)c(C3CC3)cc12", "note": "[Example 49, (S)-(phosphonooxy)methyl 5-(N-(5-cyclopropyl-3-(methylcarbamoyl)-2-(p-tolyl)furo[2,3-b]pyridin-6-yl)methylsulfonamido)-2-methylpentanoate]", "IC50": 0.002},
      {"smiles": "CNC(=O)c1c(-c2ccc(C)cc2)oc2nc(N(CCCCC#N)S(C)(=O)=O)c(C3CC3)cc12", "note": "[Example 29.6, 6-(N-(4-cyanobutyl)methylsulfonamido)-5-cyclopropyl-N-methyl-2-p-tolylfuro[2,3-b]pyridine-3-carboxamide]", "IC50": 0.002},
      {"smiles": "CCc1cc2c(C(=O)NC)c(-c3ccc(Oc4ccccc4)cc3)oc2nc1N(C)S(C)(=O)=O", "note": "[Example 17, 5-ethyl-N-methyl-6-(N-methylmethylsulfonamido)-2-(4-phenoxyphenyl)furo[2,3-b]pyridine-3-carboxamide]", "IC50": 0.128},
      {"smiles": "CNC(=O)c1c(-c2ccc(C)cc2)oc2nc(N(CCCC(C)C(=O)O)S(C)(=O)=O)c(C3CC3)cc12", "note": "(stereo not shown) [Example 29.9994, 5-(N-(5-cyclopropyl-3-(methylcarbamoyl)-2-p-tolylfuro[2,3-b]pyridin-6-yl)methylsulfonamido)-2-methylpentanoic acid]", "IC50": 0.002},
      {"smiles": "CNC(=O)c1c(-c2ccc(F)cc2)oc2nc(N(CCCCC(=O)O)S(C)(=O)=O)c(C3CC3)cc12", "note": "[Example 26.9, 5-(N-(5-cyclopropyl-2-(4-fluorophenyl)-3-(methylcarbamoyl)furo[2,3-b]pyridin-6-yl)methylsulfonamido) pentanoic acid]", "IC50": 0.003},
      {"smiles": "CCc1cc2c(C(=O)NC)c(-c3ccc(F)cc3)oc2nc1N(CCCC#N)S(C)(=O)=O", "note": "[Example 21.991, 6-(N-(3-cyanopropyl)methylsulfonamido)-5-ethyl-2-(4-fluorophenyl)-N-methylfuro[2,3-b]pyridine-3-carboxamide]", "IC50": 0.074},
      {"smiles": "CNC(=O)c1c(-c2ccc(Cl)cc2)oc2nc(N(CCCS(C)(=O)=O)S(C)(=O)=O)c(I)cc12", "note": "[Example 18.991, 2-(4-chlorophenyl)-5-iodo-N-methyl-6-(N-(3-(methylsulfonyl)propyl)methylsulfonamido)furo[2,3-b]pyridine-3-carboxamide]", "IC50": 0.029},
      {"smiles": "CNC(=O)c1c(-c2ccc(F)cc2)oc2nc(N(CCCCC#N)S(C)(=O)=O)c(I)cc12", "note": "[Example 18.9, 6-(N-(4-cyanobutyl)methylsulfonamido)-2-(4-fluorophenyl)-5-iodo-N-methylfuro[2,3-b]pyridine-3-carboxamide]", "IC50": 0.109},
      {"smiles": "CCc1cc2c(C(=O)NC)c(-c3ccc(F)cc3)oc2nc1N(CCOc1ccc(C(=O)OC)cc1)S(C)(=O)=O", "note": "[Example 22.7, methyl 4-(2-(N-(5-ethyl-2-(4-fluorophenyl)-3-(methylcarbamoyl)furo[2,3-b]pyridin-6-yl)methylsulfonamido)ethoxy)benzoate]", "IC50": 0.053}
    ]}
  ]
}
